Assay results from patent US20190077802A1, “DIFLUORO-(2-SUBSTITUTED CARBAMOYL-1,6-DIAZA-BICYCLO [3.2.1] OCT-6-YLOXY) ACETIC ACID COMPOUNDS AND THEIR USE IN TREATMENT OF BACTERIAL INFECTIONS” (WOCKHARDT LIMITED, priority 2015, published 2019).
Converted amounts (≈) assume the structure as drawn.

How the values were obtained:
Assay in all cases: Agar dilution MIC (CLSI)
E. coli 13353 = assay type: cell-based; conditions: Escherichia coli, Mueller Hinton Agar
Description: (§1) The biological activity of representative compounds according to the invention against various bacterial strains was investigated. In a typical study, overnight grown bacterial cultures were diluted appropriately and inoculated on the agar media containing doubling dilutions of the test compounds. Observations for growth or no growth was performed after 16-20 hours of incubation at 35±2° C. in the ambient air. The overall procedure was performed as per Clinical and Laboratory Standards Institute (CLSI) recommendations, (Clinical and Laboratory Standards Institute (CLSI), Performance Standards for Antimicrobial Susceptibility Testing, 20th Informational Supplement, M07-A9, Volume 32, No. 2, 2012). Molten Mueller Hinton Agar (MHA) (BD, USA) containing serial dilutions of each antibacterial agent were poured on to the plates and allowed to solidify. Appropriate suspensions from the freshly grown cultures were prepared in normal saline so that about 10^4 CFU/spot of the organism was delivered on to the drug containing agar plates using automated multipoint inoculator (Mast, UK). The plates were incubated in Biochemical oxygen demand (BOD) incubator at 37° C. for 18 hours and then examined for growth.
(§2) The Table 2 depicts the antibacterial activity profile of compounds according to present invention against various multidrug resistant bacterial strains.

K. pneumoniae H 525 = assay type: cell-based; conditions: Klebsiella pneumoniae, H525, Mueller Hinton Agar
Description: as §1, §2

K. pneumoniae H 523 = assay type: cell-based; conditions: Klebsiella pneumoniae, H523, Mueller Hinton Agar
Description: as §1, §2

E. coli 13351 = assay type: cell-based; conditions: Escherichia coli, Mueller Hinton Agar
Description: as §1, §2

E. coli M 50 = assay type: cell-based; conditions: Escherichia coli, M50, Mueller Hinton Agar
Description: as §1, §2

E. coli 7 MP = assay type: cell-based; conditions: Escherichia coli, Mueller Hinton Agar
Description: as §1, §2

K. pneumoniae H 522 = assay type: cell-based; conditions: Klebsiella pneumoniae, H522, Mueller Hinton Agar
Description: as §1, §2

E. coli M 36 = assay type: cell-based; conditions: Escherichia coli, M36, Mueller Hinton Agar
Description: as §1, §2

E. coli 13352 = assay type: cell-based; conditions: Escherichia coli, Mueller Hinton Agar
Description: as §1, §2

E. coli H 483 = assay type: cell-based; conditions: Escherichia coli, H483, Mueller Hinton Agar
Description: as §1, §2

K. pneumoniae H 521 = assay type: cell-based; conditions: Klebsiella pneumoniae, H521, Mueller Hinton Agar
Description: as §1, §2

E. coli M 138 = assay type: cell-based; conditions: Escherichia coli, M138, Mueller Hinton Agar
Description: as §1, §2

E. coli M 49 = assay type: cell-based; conditions: Escherichia coli, M49, Mueller Hinton Agar
Description: as §1, §2

E. coli S 18 = assay type: cell-based; conditions: Escherichia coli, S18, Mueller Hinton Agar
Description: as §1, §2

KP ATCC 700603 = assay type: cell-based, K. pneumoniae; conditions: Klebsiella pneumoniae, ATCC700603, Mueller Hinton Agar
Description: as §1, §2

Compound | MIC (E. coli 13353) [µg/mL] | MIC (K. pneumoniae H 525) [µg/mL] | MIC (K. pneumoniae H 523) [µg/mL] | MIC (E. coli 13351) [µg/mL] | MIC (E. coli M 50) [µg/mL] | MIC (E. coli 7 MP) [µg/mL] | MIC (K. pneumoniae H 522) [µg/mL] | MIC (E. coli M 36) [µg/mL] | MIC (E. coli 13352) [µg/mL] | MIC (E. coli H 483) [µg/mL] | MIC (K. pneumoniae H 521) [µg/mL] | MIC (E. coli M 138) [µg/mL] | MIC (E. coli M 49) [µg/mL] | MIC (E. coli S 18) [µg/mL] | MIC (KP ATCC 700603) [µg/mL]
O=C(NOC[C@H]1CCCCCN1)[C@@H]1CC[C@@H]2CN1C(=O)N2OC(F)(F)C(=O)O [Example 6] | 1 (≈ 2.46 µM) | 1 (≈ 2.46 µM) | 2 (≈ 4.92 µM) | 2 (≈ 4.92 µM) | 2 (≈ 4.92 µM) | 4 (≈ 9.84 µM) | 2 (≈ 4.92 µM) | 1 (≈ 2.46 µM) | 2 (≈ 4.92 µM) | > 32 | 2 (≈ 4.92 µM) | 2 (≈ 4.92 µM) | 8 (≈ 19.7 µM) | 2 (≈ 4.92 µM) | > 32
O=C(NOC[C@@H]1CCCN1)[C@@H]1CC[C@@H]2CN1C(=O)N2OC(F)(F)C(=O)O [Example 1] | 2 (≈ 5.29 µM) | 2 (≈ 5.29 µM) | 2 (≈ 5.29 µM) | 2 (≈ 5.29 µM) | 2 (≈ 5.29 µM) | 4 (≈ 10.6 µM) | 2 (≈ 5.29 µM) | 2 (≈ 5.29 µM) | 2 (≈ 5.29 µM) | – | 4 (≈ 10.6 µM) | 2 (≈ 5.29 µM) | 8 (≈ 21.1 µM) | 2 (≈ 5.29 µM) | > 32
O=C(NOC[C@@H]1CCCCN1)[C@@H]1CC[C@@H]2CN1C(=O)N2OC(F)(F)C(=O)O [Example 5] | 4 (≈ 10.2 µM) | 4 (≈ 10.2 µM) | 4 (≈ 10.2 µM) | 8 (≈ 20.4 µM) | 4 (≈ 10.2 µM) | 8 (≈ 20.4 µM) | 4 (≈ 10.2 µM) | 4 (≈ 10.2 µM) | 4 (≈ 10.2 µM) | – | 4 (≈ 10.2 µM) | 4 (≈ 10.2 µM) | 8 (≈ 20.4 µM) | 4 (≈ 10.2 µM) | > 32
O=C(NOC[C@H]1CCCN1)[C@@H]1CC[C@@H]2CN1C(=O)N2OC(F)(F)C(=O)O [Example 2] | 0.5 (≈ 1.32 µM) | 1 (≈ 2.64 µM) | 1 (≈ 2.64 µM) | 1 (≈ 2.64 µM) | 1 (≈ 2.64 µM) | 2 (≈ 5.29 µM) | 1 (≈ 2.64 µM) | 0.5 (≈ 1.32 µM) | 1 (≈ 2.64 µM) | – | 1 (≈ 2.64 µM) | 1 (≈ 2.64 µM) | 2 (≈ 5.29 µM) | – | > 32
O=C(NOC1CCNC1)[C@@H]1CC[C@@H]2CN1C(=O)N2OC(F)(F)C(=O)O (some centres unmarked) [Example 3] | 4 (≈ 11 µM) | 4 (≈ 11 µM) | 4 (≈ 11 µM) | 4 (≈ 11 µM) | 4 (≈ 11 µM) | 8 (≈ 22 µM) | 4 (≈ 11 µM) | 4 (≈ 11 µM) | 4 (≈ 11 µM) | > 32 | 4 (≈ 11 µM) | 4 (≈ 11 µM) | 8 (≈ 22 µM) | 16 (≈ 43.9 µM) | > 32

Further compounds by falling MIC (E. coli 13353), results first:

MIC (E. coli 13353) [µg/mL] | MIC (K. pneumoniae H 525) [µg/mL] | MIC (K. pneumoniae H 523) [µg/mL] | MIC (E. coli 13351) [µg/mL] | MIC (E. coli M 50) [µg/mL] | MIC (E. coli 7 MP) [µg/mL] | MIC (K. pneumoniae H 522) [µg/mL] | MIC (E. coli M 36) [µg/mL] | MIC (E. coli 13352) [µg/mL] | MIC (E. coli H 483) [µg/mL] | MIC (K. pneumoniae H 521) [µg/mL] | MIC (E. coli M 138) [µg/mL] | MIC (E. coli M 49) [µg/mL] | MIC (E. coli S 18) [µg/mL] | MIC (KP ATCC 700603) [µg/mL] | Compound
4 (≈ 9.84 µM) | 2 (≈ 4.92 µM) | 2 (≈ 4.92 µM) | 2 (≈ 4.92 µM) | 2 (≈ 4.92 µM) | 4 (≈ 9.84 µM) | 2 (≈ 4.92 µM) | 4 (≈ 9.84 µM) | 2 (≈ 4.92 µM) | – | 2 (≈ 4.92 µM) | 4 (≈ 9.84 µM) | 2 (≈ 4.92 µM) | – | > 32 | O=C(NOC[C@@H]1CCCCCN1)[C@@H]1CC[C@@H]2CN1C(=O)N2OC(F)(F)C(=O)O [Example 7]
4 (≈ 11.8 µM) | 4 (≈ 11.8 µM) | 4 (≈ 11.8 µM) | 4 (≈ 11.8 µM) | 4 (≈ 11.8 µM) | 8 (≈ 23.6 µM) | 4 (≈ 11.8 µM) | 2 (≈ 5.91 µM) | 4 (≈ 11.8 µM) | > 32 | 4 (≈ 11.8 µM) | 4 (≈ 11.8 µM) | 4 (≈ 11.8 µM) | 4 (≈ 11.8 µM) | > 32 | NCCONC(=O)[C@@H]1CC[C@@H]2CN1C(=O)N2OC(F)(F)C(=O)O [Example 8]
1 (≈ 2.55 µM) | 1 (≈ 2.55 µM) | 1 (≈ 2.55 µM) | – | 2 (≈ 5.1 µM) | 2 (≈ 5.1 µM) | 1 (≈ 2.55 µM) | 1 (≈ 2.55 µM) | 1 (≈ 2.55 µM) | > 32 | 2 (≈ 5.1 µM) | 2 (≈ 5.1 µM) | 4 (≈ 10.2 µM) | 2 (≈ 5.1 µM) | > 32 | O=C(NOC[C@H]1CCCCN1)[C@@H]1CC[C@@H]2CN1C(=O)N2OC(F)(F)C(=O)O [Example 4]
